“Also recorded” adds a separate entry of the source.
How the values were obtained:
[1] = system: 8-oxo-dG staining in the PFC of NVHL rats; experiment: 8-oxo-dG labeling (DNA oxidation) in PFC of NVHL rats; type: in vivo, Sprague-Dawley rats
Source text: To assess oxidative stress, DNA oxidation with 8-oxo-7,8-dihydro-20-deoxyguanine (8-oxo-dG) labeling was quantified. […] 3-NT indicates nitration of proteins due to oxidative and nitrosative stress (Radi, 2004), and its increase in NVHL rats was prevented by NAC treatment during development (as shown in FIGS. 9A and 9B). […] A possible explanation for the levels of oxidative stress detected in the adult PFC following an NVHL is the reduced glutamatergic input from ventral hippocampus during development, as blocking NMDA receptors induces oxidative stress in PVI (Behrens et al., 2007).
To determine the types of interneurons expressing oxidative stress in NVHL rats, 8-oxo-dG with PV, calbindin (CB) and calretinin (CR) was co-labeled. […] About 50% of PVI were co-labeled with 8-oxo-dG, indicating oxidative stress is pervasive in this cell population. A marker of PVI maturation is Wisteria Floribunda agglutinin (WFA), a lectin that recognizes the perineuronal nets (PNN) enwrapping mature cortical PVI. […] PVI may be highly exposed to increased oxidative stress because they make up the majority of fast-spiking interneurons and their high energy metabolism may generate more reactive oxygen species than non-fast spiking neurons.
Animals: Timed-pregnant Sprague-Dawley rats were obtained at gestational days 13-15 from Charles River (Wilmington, MA) and were individually housed with free access to food and water in a temperature- and humidity-controlled environment with a 12:12h light/dark cycle (lights on at 7:00 AM). When pups reached P5, half of the dams received NAC in their drinking water. Pups were left undisturbed until P7-9 when healthy offspring were randomly separated and received either NVHL or sham surgery. At P21, male and female pups were either transcardially perfused with 4% paraformaldehyde for immunocytochemistry or weaned and housed in groups of two to three, counterbalanced across lesion status. NAC treatment lasted throughout adolescence until P50. After reaching adulthood (>P60), animals were either perfused with 4% paraformaldehyde for immunocytochemistry, perfused with artificial cerebrospinal fluid (aCSF) for slice electrophysiology, utilized for in vivo intracellular recordings, or tested for PPI or MMN.
Neonatal ventral hippocampal lesion surgery: Between P7 and P9, pups (15-20 g) received either an excitotoxic lesion of the ventral hippocampus (NVHL) or sham procedure, as previously described (Chambers and Lipska, 2011). Pups were anesthetized with hypothermia and secured to a Styrofoam platform attached to a stereotaxic frame (David Kopf Instruments, Tujunga, CA). […]

[2] = system: PFC pyramidal neurons of NVHL rats; experiment: In vivo intracellular recordings: PFC pyramidal cell firing after VTA stimulation in NVHL rats; design: species or system Sprague-Dawley rats; details: anesthetized adult NVHL rats, juvenile treatment
Method: The abnormal dopamine modulation of PFC function in NVHL rats is also observed in vivo. In vivo intracellular recordings were performed in 38 pyramidal neurons from adult rats (n=9 SHAM (placebo), n=5 NVHL, and n=7 NAC-treated NVHL). […] Up states occurred at a frequency of 0.6±0.1 Hz with a duration of 523.6±24.7 ms. The majority of cells (n=21) fired spontaneously at a rate of 2.1±0.7 Hz.
Antioxidant pretreatment regimen: NAC (BioAdvantexPharma, Mississauga, Ontario, Canada) was administered in the drinking water at 900 mg/l. NAC treatment started at P5 or at P35, and previous work in mice has shown that NAC consumed by the dam is transmitted to the pups through her milk (das Neves Duarte et al., 2012). NAC treatment ended at P50. Fresh solutions were prepared every 2-3 days. Ebselen (Sound Pharmaceuticals Inc., Seattle, WA) was administered i.p. 5 days a week starting at P35 until the day of PPI testing (P60). Stock ebselen solution (20 mg/ml DMSO, frozen aliquots) was diluted 1:5 in sterile water and administered at a dose of 10 mg/kg. Control animals received an equivalent concentration of DMSO diluted 1:5 in water. […]
Microelectrodes were advanced through the medial PFC until a neuron was impaled. […] Firing was measured in the 500 ms epoch following the last VTA pulse in all sweeps, and compared among experimental groups. […]

## CC(=O)N[C@@H](CS)C(=O)O [NAC, N-acetyl cysteine]
[1]; NVHL rats, developmental treatment
  effect on 8-oxo-dG labeling in PV interneurons: prevented
[1]; P21 NVHL rats, drinking water 900 mg/l from P5
  effect on increase in 8-oxo-dG staining in PFC: completely prevented
[1]; P61 NVHL rats, drinking water 900 mg/l, P5 to P50
  effect on increase in 8-oxo-dG in PFC: prevented
[1]; adult NVHL rats, juvenile treatment, to levels comparable to control rats
  multiple markers of oxidative stress: decreased
[2]
  effect on abnormal increase in pyramidal cell firing after VTA burst stimulation: prevented; also recorded: sparse
